Data from US20260240895A1, “BETA-GLUCAN PARTICLES FOR TRAINED IMMUNITY” (THE PROVOST, FELLOWS, FOUNDATION SCHOLARS, AND THE OTHER …, priority 2022, published 2026).
Read-outs that look alike come from different tables or passages of the source.

Key:
[1] = tested on: human monocytes / monocyte-derived macrophages (hMDM); assay: Human monocyte training assay: cytokine ELISA after restimulation of monocyte-derived macrophages; assay type: cell-based
human monocytes = assay: TNF production by monocytes 24 h post-training (monocyte activation); assay type: cell-based; details: TNF 24 h after dWGP
Dectin-1b = biological target: T1, Dectin-1b (Homo sapiens, UniProt Q9BXN2); assay: hDectin1b-HEK293 NFκB-SEAP reporter cell assay (QuantiBlue); assay type: cell-based; details: for blocking of BGP- or dWGP-driven NFκB-SEAP activation: pre-incubation 1 h before BGP or dWGP 100 μg/mL; for NFκB-linked SEAP activity (Dectin-1b activation): β-glucans 1, 10 & 100 μg/mL, 6 h, relative to untreated cells
T1 construct: host or cells: HEK293 (HEK-Blue) NFκB-SEAP reporter cells
T1 sequence (Q9BXN2 1-201 isoform Q9BXN2-2): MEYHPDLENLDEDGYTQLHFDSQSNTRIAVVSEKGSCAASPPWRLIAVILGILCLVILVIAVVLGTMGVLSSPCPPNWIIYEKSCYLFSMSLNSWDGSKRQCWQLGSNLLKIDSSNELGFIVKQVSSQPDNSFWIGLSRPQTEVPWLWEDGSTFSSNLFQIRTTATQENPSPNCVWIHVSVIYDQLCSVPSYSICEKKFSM

[2] = tested on: mTOR (phospho-S6 ribosomal protein); assay: Intracellular phospho-S6 staining by flow cytometry (mTOR activity); assay type: cell-based, human; details: 15 min pre-treatment, dWGP 10 μg/mL 2 h
Method: To analyse phospho-S6 ribosomal protein activity after β-glucan treatment, PBMCs were isolated as above and resuspended in RPMI-1640 media supplemented with 10% human AB serum (Sigma-Aldrich) at 2×10^6/mL. Cells were first incubated with metabolic inhibitors for 15 min as indicated above. […] After the incubation time, cells were resuspended by vortexing quickly, washed in flow buffer; [PBS-1× (Gibco) supplemented with 5% heat inactivated FBS (Gibco) and 0.1% Sodium azide (Sigma)] and the following flow cytometry staining protocol was applied to all samples with up to 100,000 cells per sample. Cells were stained with fixable viability stain ZombieAqua™ (Biolegend) at the concentration of 1:500 for 15 minutes. Subsequently, samples were washed with flow buffer and incubated with anti-Dectin-1-PE (clone 15E2, Biolegend) antibody for Dectin-1 surface staining, then washed and fixed 20 minutes with IC Fixation Buffer (Invitrogen). […] All cells were subsequently washed with flow buffer and resuspended 20 minutes with IC Fixation Buffer (Invitrogen) for fixation. Cells were then washed with flow buffer, incubated at 4° C. for 30 minutes with Perm/Wash Buffer (BD Biosciences) containing anti-phospho-S6-PE (Ser235/236) (cloneD57.2.2E, Cell Signaling) at 1:200 for intracellular pS6 staining, and finally washed again with flow buffer. Compensation controls were obtained after staining UltraComp eBeads™ Compensation Beads (Invitrogen) with the appropriate antibodies. Cells were acquired on the BD flow cytometer Canto II with FACSDiva software. Data analysis and flow charts were performed using FlowJo software v.7.6 (TreeStar).

Dectin-1 = biological target: T2, Dectin-1 (Homo sapiens, UniProt Q9BXN2); assay: Surface Dectin-1 expression on monocytes by flow cytometry; assay type: cell-based; details: CytD 10 μM 1 h before dWGP 100 μg/mL 15 min
T2 construct: incubated with anti-Dectin-1-PE (clone 15E2, Biolegend) antibody for Dectin-1 surface staining; endogenous in cells; host or cells: primary human monocytes (PBMC from buffy coats)
T2 sequence (Q9BXN2 1-247): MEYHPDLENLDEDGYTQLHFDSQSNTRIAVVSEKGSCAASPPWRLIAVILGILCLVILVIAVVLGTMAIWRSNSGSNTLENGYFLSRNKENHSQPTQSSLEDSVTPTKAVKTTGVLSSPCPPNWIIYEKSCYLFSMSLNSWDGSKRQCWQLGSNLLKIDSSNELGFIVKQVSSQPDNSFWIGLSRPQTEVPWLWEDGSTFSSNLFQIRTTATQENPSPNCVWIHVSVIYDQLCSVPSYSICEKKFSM
Method: To analyse phospho-S6 ribosomal protein activity after β-glucan treatment, PBMCs were isolated as above and resuspended in RPMI-1640 media supplemented with 10% human AB serum (Sigma-Aldrich) at 2×10^6/mL. Cells were first incubated with metabolic inhibitors for 15 min as indicated above. […] After the incubation time, cells were resuspended by vortexing quickly, washed in flow buffer; [PBS-1× (Gibco) supplemented with 5% heat inactivated FBS (Gibco) and 0.1% Sodium azide (Sigma)] and the following flow cytometry staining protocol was applied to all samples with up to 100,000 cells per sample. Cells were stained with fixable viability stain ZombieAqua™ (Biolegend) at the concentration of 1:500 for 15 minutes. Subsequently, samples were washed with flow buffer and incubated with anti-Dectin-1-PE (clone 15E2, Biolegend) antibody for Dectin-1 surface staining, then washed and fixed 20 minutes with IC Fixation Buffer (Invitrogen). Alternatively, cells were incubated with anti-CD14-APC (clone M5E2, Biolegend), anti-CD16-PE-Cy7 (clone 3G8, Biolegend), anti-HLA-DR-BB515 (clone G46-6, BD Bioscience) at a concentration of 1:100 in flow buffer for 30 minutes at 4° C. All cells were subsequently washed with flow buffer and resuspended 20 minutes with IC Fixation Buffer (Invitrogen) for fixation. […]

[3] = tested on: bone marrow hematopoietic stem & progenitor cells (HSPC); assay: In vivo induction of trained immunity: flow cytometry of mouse bone marrow HSPC populations; details: 0.050% w/w in chow, 4 weeks

Compound: O=CC[C@@H](O)[C@H](O)[C@H](O)CO [2DG, 2-deoxyglucose]
- effect of inhibitor pre-treatment on β-glucan training (TNF after LPS restimulation) [1]: abolished the ability of dWGP to increase LPS-restimulation responses

Compound: Cc1ccc(S(=O)(=O)/C=C/C#N)cc1 [BAY 11-7082]
- effect of inhibitor pre-treatment on β-glucan training (TNF after LPS restimulation) ([1]; inhibitor added to monocytes prior to training with dWGP and/or BGP, LPS 10 ng/ml 6 h): abolishment of LPS-restimulation driven TNF production in trained macrophages
- effect of inhibitor pre-treatment on early monocyte TNF production driven by dWGP (human monocytes): enhanced early TNF production

Compound: Oc1cc(O)cc(/C=C/c2ccc(O)c(O)c2)c1 [PIC, picethanol]
- blocking of BGP- or dWGP-driven NFκB-SEAP activation (Dectin-1b): blocking NFκB activation driven by dWGP and BGP
- effect of inhibitor pre-treatment on β-glucan training (TNF after LPS restimulation) [1]: suppressed monocyte training driven by both BGP and dWGP
- effect of inhibitor pre-treatment on early monocyte TNF production driven by dWGP (human monocytes): block traditional pro-inflammatory signaling and monocyte TNF production
- effect of inhibitor pre-treatment on dWGP-driven p-S6 / mTOR activation [2]: did not affect mTOR up-regulation

Compound: CO/C1=C\C(C)=C\[C@@H](C)[C@@H](O)[C@@H](C)C/C(C)=C/C=C/[C@H](OC)[C@@H]([C@@H](C)[C@@H](O)[C@H](C)[C@@]2(O)C[C@@H](O)[C@H](C)[C@@H](C(C)C)O2)OC1=O [bafilomycin A1]
- effect of inhibitor pre-treatment on dWGP-driven p-S6 / mTOR activation [2]: profound decrease in monocyte mTOR activation by dWGP

Compound: C=C1[C@@H](C)[C@H]2[C@H](Cc3ccccc3)NC(=O)[C@]23[C@H](OC(C)=O)/C=C/[C@@](C)(O)C(=O)[C@@H](C)C/C=C/[C@H]3[C@@H]1O [cytD, cytochalasin-D]
- effect of inhibitor on dWGP-induced loss of surface Dectin-1 (Dectin-1): blunts this effect
- effect of inhibitor pre-treatment on β-glucan training (TNF after LPS restimulation) [1]: preferentially blocked the training effect
- effect of inhibitor pre-treatment on dWGP-driven p-S6 / mTOR activation [2]: blocked monocyte mTOR activation driven by dWGP

Compound: Curdlan
- NFκB-linked SEAP activity (Dectin-1b activation) (Dectin-1b): drive NFκB signaling in a dose-dependent fashion
- TNF production upon LPS restimulation (training) ([1]; monocytes exposed 24 h, matured 5 days, LPS 10 ng/ml 6 h, vs untrained): A trend toward some training was observed

Compound: Pustulan
- NFκB-linked SEAP activity (Dectin-1b activation) (Dectin-1b): drive NFκB signaling in a dose-dependent fashion

Compound: inulin
- trained immunity-like effects (bone marrow progenitors, BMDM cytokines) [3]: behaving similarly to control chow-fed mice

Compound: laminarin
- blocking of BGP- or dWGP-driven NFκB-SEAP activation (Dectin-1b): block Dectin-1b mediated NFκB activation
- effect of inhibitor pre-treatment on β-glucan training (TNF after LPS restimulation) [1]: more effective at all doses tested
